Experimental data published in US5250542A, “Peripherally selective piperidine carboxylate opioid antagonists” (Eli Lilly and Company, priority 1992, dated 1993).
Structures can show the parent of a compound that is named as a salt. Where two headings read alike, the source gives them in different places.

How the values were obtained:
opioid receptor = target: T1, opioid receptor (Mus musculus, UniProt P42866); experiment: mouse writhing analgesis test: block of morphine-induced analgesia; type: in vivo, CF-1 male mice; parameters: unit not given here; details: dose of antagonist that reduced the inhibition of writhing produced by 1.25 mg/kg morphine sulfate to 50%, subcutaneous, 20 min before acetic acid
T1 construct: Five CF-1 male mice (Charles River, Portage, Mich.); from tissue; host or cells: living CF-1 male mice (in vivo test; endogenous receptor)
How it was run: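 Male CF-1 mice (~20 g, fasted overnight, n=5) dosed subcutaneously 20 min before i.p. 0.6% acetic acid; writhes counted for 10 min starting 5 min post-injection. Antagonism measured as blockade of morphine-induced inhibition of writhing, percent versus vehicle controls; ED50 defined as 50% writhing inhibition.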

[1] = target: T2, peripheral opioid receptors (Mus musculus, UniProt P42866); experiment: precipitated diarrhea in morphine-maintained mice (peripheral opioid activity) and comparison with the writhing test; type: in vivo; parameters: ED50 (diarrhea): unit not given beside the values; details: for Ratio (AD50 mouse writhing test / ED50 mouse diarrhea test): higher ratio = greater relative antagonism of peripheral opioid receptors; for ED50: mouse, 0.5 h; for ED50 / ED50 (diarrhea): morphine-maintained mice, antagonist subcutaneous or oral, 30 min observation; for ED50 (diarrhea): 30 min
T2 construct: Mice maintained (6 mice/cage) on 0.01M saccharin water with 1 g/1 morphine sulfate; from tissue; host or cells: living morphine-maintained mice (in vivo test; endogenous receptor)
How it was run: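 Morphine-dependent mice (1 g/l morphine sulfate in drinking water ≥10 days, withdrawn 45 min before dosing) received antagonist subcutaneously or orally, 5 mice/dose. Diarrhea (and jumping) were scored over 30 min and doses lowered to find the diarrhea threshold. Peripheral selectivity was taken as writhing AD50 divided by diarrhea ED50.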

mu receptor = target: T3, mu receptor (Rattus norvegicus, UniProt P33535); experiment: opioid receptor binding assay, [3H] NAL (tritiated naloxone), mu receptor; parameters: species or system rat (Male Sprague Dawley), brain minus cerebellum
T3 construct: rat whole brain minus cerebellum for mu was homogenized; from tissue; host or cells: brain of male Sprague Dawley rats, whole brain minus cerebellum, homogenate fraction
How it was run: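 Displacement of [3H]naloxone was measured on rat whole brain minus cerebellum membranes, preincubated 20 min and incubated 20 min at 37° C, with filtration separating bound ligand. Ki was derived from IC50 and ligand KD. Percent displacement was also recorded at 10 nM and 100 nM test compound.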

[2] = 20 min, read-out: % displacement at 10 nM, 10 nM test compound, [3H] naloxone 0.5 nM
[3] = 20 min, read-out: % displacement at 100 nM, 100 nM test compound, [3H] naloxone 0.5 nM
[4] = 20 min, read-out: % displacement at 100 nM
[5] = 20 min, read-out: % displacement at 10 nM
[6] = 20 min, 10 nM test compound, [3H] naloxone 0.5 nM, read-out: % displacement at 10 nM
[7] = 20 min, 100 nM test compound, [3H] naloxone 0.5 nM, read-out: % displacement at 100 nM

T2 sequence (P42866 whole entry): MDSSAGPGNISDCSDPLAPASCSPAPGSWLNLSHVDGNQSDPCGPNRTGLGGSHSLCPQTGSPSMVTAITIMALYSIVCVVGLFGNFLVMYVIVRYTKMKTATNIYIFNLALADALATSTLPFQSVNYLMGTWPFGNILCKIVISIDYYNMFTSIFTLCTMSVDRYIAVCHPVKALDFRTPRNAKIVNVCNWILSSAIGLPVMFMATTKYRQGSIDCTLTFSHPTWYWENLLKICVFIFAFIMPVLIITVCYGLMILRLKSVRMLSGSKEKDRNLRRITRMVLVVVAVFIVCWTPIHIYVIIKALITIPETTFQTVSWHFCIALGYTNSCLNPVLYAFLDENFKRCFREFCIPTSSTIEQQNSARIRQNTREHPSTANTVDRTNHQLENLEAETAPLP
T1 sequence (P42866 whole entry): as above
T3 sequence (P33535 whole entry): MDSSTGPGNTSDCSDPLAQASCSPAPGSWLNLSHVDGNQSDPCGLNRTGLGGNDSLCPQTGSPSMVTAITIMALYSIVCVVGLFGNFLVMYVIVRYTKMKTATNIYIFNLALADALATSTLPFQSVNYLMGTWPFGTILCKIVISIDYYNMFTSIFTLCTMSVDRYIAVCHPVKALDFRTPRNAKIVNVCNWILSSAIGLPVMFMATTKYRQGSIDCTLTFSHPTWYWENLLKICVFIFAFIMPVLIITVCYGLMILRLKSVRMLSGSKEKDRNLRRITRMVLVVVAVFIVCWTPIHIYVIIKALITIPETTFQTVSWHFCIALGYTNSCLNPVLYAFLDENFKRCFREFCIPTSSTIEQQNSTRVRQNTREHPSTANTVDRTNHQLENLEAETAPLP

| Compound | AD50 (opioid receptor) | Ratio (AD50 mouse writhing test / ED50 mouse diarrhea test) [1] | ED50 [1] | Ki (mu receptor) | inhibition at 0.01 µM (mu receptor; [2]) | inhibition at 0.1 µM (mu receptor; [3]) | inhibition at 0.1 µM (mu receptor; [4]) | other results |
| --- | --- | --- | --- | --- | --- | --- | --- | --- |
| CCOC(=O)CNC(=O)C(CCN1CC[C@@](C)(c2cccc(O)c2)[C@@H](C)C1)c1ccccc1 (relative stereo) [Example 11, 2-[[4-4-(3-hydroxyphenyl)-3,4-dimethyl-1-piperidinyl]-1-oxo-2-phenylbutyl]amino]-acetic acid ethyl ester monohydrochloride] | 2.4 | 141 | 0.017 mg/kg | 0.3 nM | 81% | 89% |  |  |
| C[C@H]1CN(CCC(C(=O)NCCC(=O)OCc2ccccc2)C2CCCCC2)CC[C@@]1(C)c1cccc(O)c1 (relative stereo) [Example 25, 3-[[2-cyclohexyl-4-[4-(3-hydroxyphenyl)-3,4-dimethyl-1-piperidinyl]-1-oxobutyl]amino]propanoic acid phenylmethyl ester hydrochloride monohydrate] | 11.5 | 40 | 0.29 mg/kg | 0.22 nM | 100% | 100% |  |  |
| CCNC(=O)CNC(=O)C(CC1CCCCC1)CN1CC[C@@](C)(c2cccc(O)c2)[C@@H](C)C1 (relative stereo) [Example 31, N-ethyl-2-[[3-[4-(3-hydroxyphenyl)-3,4-dimethyl-1-piperidinyl]-2-(cyclohexylmethyl)-1-oxo-propyl]amino]acetamide monohydrochloride monohydrate] | 5.3 | 38 | 0.14 mg/kg | 0.4 nM | 100% |  | 97% |  |
| C[C@H]1CN(CC(Cc2ccccc2)C(=O)NCC(=O)OCc2ccccc2)CC[C@@]1(C)c1cccc(O)c1 (stereo partly shown) [Example 55, 2-[[2-(phenylmethyl)-1-oxo-3-[4-(3-hydroxyphenyl)3,4-dimethyl-1-piperidinyl]propyl]amino]-ethanoic acid phenylmethyl ester hydrochloride] | 7.5 | 63 | 0.12 mg/kg |  |  |  | 97% | inhibition at 0.01 µM (mu receptor; [5]): 83% |
| CCc1noc(CNC(=O)C(Cc2ccccc2)CN2CC[C@@](C)(c3cccc(O)c3)[C@@H](C)C2)n1 (relative stereo) [Example 71, 3-[4-(3-hydroxyphenyl)-3,4-dimethyl1-piperidinyl]-2-(phenylmethyl)-N-[(3-ethyl-1,2,4-oxadiazol-5-yl)methyl]propanamide] | 2.1 | 11 | 0.19 mg/kg | 0.71 nM | 81% |  | 94% |  |
| CCOC(=O)C(CC1CCCCC1)CN1CC[C@@](C)(c2cccc(O)c2)[C@@H](C)C1 (relative stereo) [Example 5A, 3-(3,4-dimethyl-4-(3-hydroxyphenyl)-1-piperidinyl]-2-(cyclohexylmethyl)propanoic acid ethyl ester hydrochloride] | 1.2 | 20 | 0.06 mg/kg | 13.8 nM | 61% | 93% |  |  |
| CCNC(=O)CNC(=O)C(Cc1ccccc1)CN1CC[C@@](C)(c2cccc(O)c2)[C@@H](C)C1 (stereo partly shown) [Example 45, N-ethyl-2-[[2-(phenylmethyl-)-1-oxo-3-[4-(3-hydroxyphenyl)-3,4-dimethyl-1-piperidinyl]propyl]-amino]ethanamide] | 2.6 | 11 | 0.24 mg/kg | 1.28 nM | 93% |  | 98% |  |
| C[C@H]1CN(CC(CC2CCCCC2)C(=O)NCC(=O)O)CC[C@@]1(C)c1cccc(O)c1 (relative stereo) [Example 30, 2-[[3-[4-(3-hydroxyphenyl)-3,4-dimethyl-1-piperidinyl]-2-(cyclohexylmethyl)-1-oxopropyl]-amino]acetic acid monohydrate] | > 40 | > 2353 | 0.017 mg/kg | 0.42 nM | 89% | 93% |  |  |
| CCOC(=O)CNC(=O)CNC(=O)C(Cc1ccccc1)CN1CC[C@@](C)(c2cccc(O)c2)[C@@H](C)C1 (relative stereo) [Example 67, [[2-[2-[4-(3-hydroxyphenyl)-3,4-dimethyl-1-piperidinyl]methyl]-3-phenyl-1-oxopropyl]-amino]acetyl]amino]acetic acid ethyl ester monohydrochloride] | 5.5 | 36 | 0.15 mg/kg | 0.37 nM | 79% | 91% |  |  |
| CCOC(=O)CN(C)C(=O)C(Cc1ccccc1)CN1CC[C@@](C)(c2cccc(O)c2)[C@@H](C)C1 (stereo partly shown) [Example 65, [[2-[[4-(3-hydroxyphenyl)-3,4-dimethyl-1-piperidinyl]methyl]-1-oxo-3-phenylpropyl]-methylamino]acetic acid ethyl ester monohydrochloride] | 2.8 | 3 | 0.92 mg/kg |  |  |  |  | inhibition at 0.01 µM (mu receptor; [6]): 57%; inhibition at 0.1 µM (mu receptor; [7]): 95% |
| CCOC(=O)C(CCN1CC[C@@](C)(c2cccc(O)c2)[C@@H](C)C1)c1ccccc1 (relative stereo) [Example 8A, trans-4-[(3-Hydroxyphenyl)-3,4-dimethyl-1-piperidine]-2-phenyl butanoic acid, ethyl ester hydrochloride] | 0.70 | 35 | 0.02 mg/kg |  | 88% | 95% |  | Ki (mu receptor; [3H] naloxone 0.5 nM, pH 7.4, 37° C., 20 min): 2.01 nM |
| C[C@H]1CN(CCC(C(=O)NCCC(N)=O)C2CCCCC2)CC[C@@]1(C)c1cccc(O)c1 (relative stereo) [Example 17, monohydrochloride] | > 40 | > 667 | 0.06 mg/kg | 0.43 nM | 97% | 100% |  |  |
| CCOC(=O)CNC(=O)C(Cc1ccccc1)CN1CC[C@@](C)(c2cccc(OC)c2)[C@@H](C)C1 (single isomer, unassigned) [Example 81] | 13.2 | 4 | 3.28 mg/kg |  |  |  |  | inhibition at 0.01 µM (mu receptor; [6]): 21%; inhibition at 0.1 µM (mu receptor; [7]): 55% |
| C[C@H]1CN(CC(Cc2ccccc2)C(=O)NCC(N)=O)CC[C@@]1(C)c1cccc(O)c1 (stereo partly shown) [Example 46, N-(2-amino-2-oxoethyl)-3-[3,4-dimethyl-4-(3-hydroxyphenyl)-1-piperidinyl]-2-phenylmethyl propanamide monohydrochloride monohydrate] | 40 | 571 | 0.07 mg/kg | 0.31 nM | 99% | 95% |  |  |
| C[C@H]1CN(CC(CC2CCCCC2)C(=O)NCCC(=O)OCc2ccccc2)CC[C@@]1(C)c1cccc(O)c1 (relative stereo) [Example 34, 3-[[2-(cyclohexylmethyl)-1-oxo-3-[4-(3-hydroxyphenyl)-3,4-dimethyl-1-piperidinyl]propyl]-amino]propanoic acid phenylmethyl ester monohydrochloride] | 15.1 | 84 | 0.18 mg/kg | 36.6 nM | 78% |  | 97% |  |
| CC(C)COC(=O)CNC(=O)C(Cc1ccccc1)CN1CC[C@](C)(c2cccc(O)c2)[C@H](C)C1 (single isomer, unassigned) [Example 98D] |  |  |  |  | 57% | 92% |  | AD50 (opioid receptor; listed as 98D**, 1.25 mg/kg): 15.3; AD50 (opioid receptor; listed as 98D*, 1.25 mg/kg): 2.9; Ratio (AD50 mouse writhing test / ED50 mouse diarrhea test) ([1]; listed as 98D*): 4; Ratio (AD50 mouse writhing test / ED50 mouse diarrhea test) ([1]; listed as 98D**): 255; ED50 (diarrhea) ([1]; listed as 98D**): 0.06; ED50 (diarrhea) ([1]; listed as 98D*): 0.76; % displacement at 100 nM (mu receptor): 96%; inhibition at 0.01 µM (mu receptor; [5]): 80% |
